The text below walks through data of ChEMBL document CHEMBL1151497, “Design, synthesis and antiproliferative activity of methyl 4-Iodo-1--D-ribofuranosyl-pyrazole-3-carboxylate and related compounds” (Bioorg Med Chem Lett, 1996).

Some results are limits rather than exact numbers.

Usually IC50 stands for the midpoint of a concentration-inhibition curve. Low readings indicate greater potency in that assay, high ones weaker potency in that assay. What is called EC50 is the concentration needed to bring the measured effect to its halfway point. A low value points to a more potent agent.

What all share (format): functional, cell-based
Test [1] has as its system CCRF-CEM. Briefly: Compound was tested for its effect on the proliferation of CCRF-CEM human lymphoblastic T-leukemia cell line.
The test system of a further test is CHO-K1. Description: Compound was tested for its effect on the proliferation of CHO-K1 Chinese hamster ovary cell line. The settings on record: Cricetulus griseus.
The subject of the next test is Raji. Briefly: Compound was tested for its effect on the proliferation of RAJI burkitt lymphoma cell line. The settings on record: Homo sapiens.
Another test concerns HT-29. Description: Compound was tested for its effect on the proliferation of HT-29 human colon adenocarcinoma.
For a further test, the system named is C8166. Description: Compound was tested for its effect on the proliferation of C8166 cells expressing the TAT gene of HTLV-1. Particulars: Homo sapiens.
For a further test, the system named is WIL2-NS. Briefly: Compound was tested for its effect on the proliferation of WIL-2-NS cell line. Particulars: Homo sapiens.
Another test deals with CCRF-SB. Briefly: Compound was tested for its effect on the proliferation of CCRF-SB human lymphoblastic B-leukemia cell line.
A further test relates to ACHN. Description: Compound was tested for its effect on the proliferation of ACHN human kidney adenocarcinoma.
The test system of the next test is HEL 299. Briefly: Compound was tested for its effect on the proliferation of […] human diploid embryonal lung cell line.
In another test the test system is L1210. Briefly: Compound was tested for its effect on the proliferation of L1210 murine leukemia cell line. Particulars: Mus musculus.
A further test relates to MOLT-4. Briefly: Compound was tested for its effect on the proliferation of MOLT-4 human lymphoblastic T-leukemia cell line.
Test [2] has as its system MT4. Description: Compound was tested for its effect on the proliferation of MT-4 cells expressing the TAT gene of HTLV-1. The settings on record: Homo sapiens.
Test [3] has as its system MT4. Briefly: Dose required to achieve 50% protection of MT-4 cells against the cytopathic effect of HIV-1. The settings on record: Homo sapiens. In general terms: Cytopathic effects are the visible damage that an infection or toxin causes in cultured cells.
Test [4] has as its system CCRF-CEM. Description: Compound was tested for its effect on the proliferation of CCRF-CEM human lymphoblastic T-leukemia cell line.

Consider `C#Cc1cn([C@@H]2O[C@H](CO)[C@@H](O)[C@H]2O)nc1C(N)=O`, for which the IC50 in the test on CCRF-CEM [1] was over 300 µM; in the test with CHO-K1 it was over 300 µM; with Raji, over 300 µM; with HT-29 it was over 300 µM; in the test with C8166, 22 µM; with WIL2-NS it was over 300 µM. In addition, the IC50 with CCRF-SB was over 300 µM; with ACHN, 287 µM; in the test on HEL 299, 235 µM; with L1210, over 300 µM; with MOLT-4, over 300 µM; in the test on MT4 [2] it was over 300 µM.

As for `COC(=O)c1nn([C@@H]2O[C@H](CO)[C@@H](O)[C@H]2O)cc1I.Cc1cn([C@H]2C[C@H](N=[N+]=[N-])[C@@H](CO)O2)c(=O)[nH]c1=O`, the EC50 in the test with MT4 [3] was determined as 5 nM.

Turning to `Cc1noc(-c2nn([C@@H]3O[C@H](CO)[C@@H](O)[C@H]3O)cc2I)n1`, the IC50 amounted to 2.6 µM with CCRF-CEM [1]; 8.5 µM in the test with CHO-K1; 4.8 µM in the test on HT-29; 3.5 µM in the test with WIL2-NS; 2.8 µM in the test on CCRF-SB; 6.2 µM in the test on ACHN. In addition, the figures for the IC50 in the test on HEL 299, in the test on MOLT-4 and in the test with MT4 [2] were 7.9 µM, 3 µM and 2.3 µM, respectively.

With `NC(=O)c1ncn([C@@H]2O[C@H](CO)[C@@H](O)[C@H]2O)n1` [RIBAVIRIN], the IC50 with CCRF-CEM [1] is 19 µM; in the test with CHO-K1 it was 50 µM; in the test on Raji it was 56 µM; in the test on C8166, over 100 µM; in the test on WIL2-NS it was over 100 µM; in the test with CCRF-SB it was over 100 µM. In addition, the IC50 with ACHN is over 100 µM; in the test with HEL 299 it was 45 µM; with L1210 it was 16.6 µM; in the test on MOLT-4, 5.7 µM; in the test with MT4 [2], 23 µM.

Consider `CCCCOC(=O)c1nn([C@@H]2O[C@H](CO)[C@@H](O)[C@H]2O)cc1I`, for which the IC50 in the test on CCRF-CEM [1] came out at 19 µM; in the test on CHO-K1 it was 37 µM; in the test with Raji, 17 µM; with HT-29, 25 µM; with C8166 it was 15 µM; in the test on WIL2-NS, 23 µM. In addition, the IC50 in the test on CCRF-SB came out at 21 µM; in the test with HEL 299, 40 µM; with MOLT-4, 16 µM; in the test with MT4 [2] it was 25 µM.

In the case of `O=C(O)c1nn([C@@H]2O[C@H](CO)[C@@H](O)[C@H]2O)cc1I`, the IC50 in the test on CCRF-CEM [1], in the test on CHO-K1, in the test on Raji, with HT-29, in the test on C8166 and in the test with WIL2-NS was over 300 µM throughout. Also, the IC50 with CCRF-SB, in the test with ACHN, with HEL 299, with L1210, in the test with MOLT-4 and in the test with MT4 [2] was over 300 µM in each case.

Turning to `COC(=O)c1nn([C@@H]2O[C@H](CO)[C@@H](O)[C@H]2O)cc1I`, the IC50 in the test with CCRF-CEM [1] amounted to 1.5 µM; in the test with CHO-K1, 7.9 µM; in the test with Raji, 0.2 µM; in the test with HT-29, 2.8 µM; in the test on C8166, 0.2 µM; in the test on WIL2-NS it was 1.6 µM. In addition, the concentration for half-maximal inhibition (IC50) was 0.9 µM in the test with CCRF-SB; 3.6 µM with ACHN; 4 µM in the test with HEL 299; 2.4 µM in the test on L1210; 0.9 µM in the test with MOLT-4; 1.6 µM with MT4 [2].

With `COC(=O)c1csc([C@@H]2O[C@H](CO)[C@@H](O)[C@H]2O)n1`, the IC50 with CCRF-CEM [1], with CHO-K1, in the test with Raji, with HT-29, in the test with WIL2-NS and in the test on CCRF-SB was over 300 µM in each case. In addition, the IC50 in the test on ACHN, in the test with HEL 299, in the test with L1210, with MOLT-4 and in the test with MT4 [2] was over 300 µM throughout.

As for `Cc1cn([C@H]2C[C@H](N=[N+]=[N-])[C@@H](CO)O2)c(=O)[nH]c1=O` [ZIDOVUDINE], it took 2 nM to reach a half-maximal effect in the test on MT4 [3] (EC50).

Regarding `COC(=O)c1ncn([C@@H]2O[C@H](CO)[C@@H](O)[C@H]2O)n1`, the IC50 in the test on CCRF-CEM [1], in the test on CHO-K1, in the test on Raji, in the test with HT-29, with WIL2-NS and in the test with CCRF-SB was over 300 µM each time. Also, the IC50 with ACHN, in the test on HEL 299, in the test with L1210, in the test with MOLT-4 and in the test on MT4 [2] was over 300 µM each time.

`NC(=O)c1nn([C@@H]2O[C@H](CO)[C@@H](O)[C@H]2O)cc1I`: the IC50 in the test with CHO-K1 was over 300 µM; with Raji, over 300 µM; with CCRF-CEM [4], 2400 nM; with HT-29, over 300 µM; with C8166, 4 µM; in the test on WIL2-NS it was over 300 µM. In addition, the IC50 in the test with CCRF-SB was over 300 µM; in the test on ACHN, over 300 µM; with HEL 299, over 300 µM; in the test on L1210, over 300 µM; in the test with MOLT-4, 9.1 µM; with MT4 [2], 2.1 µM.

`COc1cccc2c1C(=O)c1c(O)c3c(c(O)c1C2=O)C[C@@](O)(C(=O)CO)C[C@@H]3O[C@H]1C[C@H](N)[C@H](O)[C@H](C)O1` [DOXORUBICIN]: the IC50 with CCRF-CEM [1] is 0.08 µM; in the test with CHO-K1 it was 1.2 µM; in the test on Raji it was 0.1 µM; with HT-29, 1.1 µM; in the test on C8166, 0.05 µM; in the test on WIL2-NS, 0.2 µM. Moreover, the IC50 in the test on CCRF-SB was determined as 0.05 µM; in the test with ACHN, 0.7 µM; in the test with HEL 299, 1.7 µM; in the test on L1210, 0.9 µM; in the test on MOLT-4, 0.05 µM; with MT4 [2] it was 0.05 µM.

`COC(=O)c1nn([C@@H]2O[C@H](CO)[C@@H](O)[C@H]2O)cc1I.OC[C@@H]1CC[C@H](n2cnc3c(O)ncnc32)O1`: in the test with MT4 [3], a half-maximal response (EC50) required 3000 nM.
